According to US8859605B2, “Cysteine protease inhibitors” (Medivir UK Ltd, priority 2009, dated 2014):

How the values were obtained:
[1] = target: T1, human cathepsin S (Homo sapiens, UniProt P25774); test: Cathepsin S Ki determination (boc-Val-Leu-Lys-AMC fluorescent substrate); assay type: biochemical; details: baculovirus-expressed human cathepsin S, pH 6.5; read-out: Ki Cat. S
T1 construct: made in house; host or cells: baculovirus expression system
Protocol: Cathepsin S Ki Determination
The assay uses baculovirus-expressed human cathepsin S and the boc-Val-Leu-Lys-AMC fluorescent substrate available from Bachem in a 384 well plate format, in which 7 test compounds can be tested in parallel with a positive control comprising a known cathepsin S inhibitor comparator.
280 μL/well of 12.5% DMSO are added to rows B-H of two columns of a 96 deep well polypropylene plate. 70 μL/well of substrate is added to row A. 2×250 μL/well of assay buffer (100 mM Na phosphate, 100 mM NaCl, pH 6.5) is added to row A, mixed, and double diluted down the plate to row H.
100 μL/well of assay buffer is added to columns 2-5 and 7-12 of 4 rows of a 96 well V bottom polypropylene plate. 200 μL/well of assay buffer is added to columns 1 and 6.
2 μl of each 10 mM test compound is added to a separate well on row A, columns 1-10. Add 90 μl assay buffer containing 1 mM DTT and 2 nM cathepsin S to each well of rows B-H and 180 μl to row A. Mix row A using a multichannel pipette and double dilute to row G. Mix row H and read in the fluorescent spectrophotometer.
The second test compound is added to column 6 of the top row, the third to column 1 of the second row etc. Add 1 μL of comparator to column 6 of the bottom row. Mix column 1 and double dilute to column 5. Mix column 6 and double dilute to column 10. Using an 8-channel multistepping pipette set to 5×10 μL, distribute 10 μL/well of substrate to the 384 well assay plate. Distribute the first column of the substrate dilution plate to all columns of the assay plate starting at row A. The tip spacing of the multichannel pipette will correctly skip alternate rows. Distribute the second column to all columns starting at row B. Using a 12-channel multistepping pipette set to 4×10 μL, distribute 10 μL/well of inhibitor to the 384 well assay plate. Distribute the first row of the inhibitor dilution plate to alternate rows of the assay plate starting at A1. The tip spacing of the multichannel pipette will correctly skip alternate columns. Similarly, distribute the second, third and fourth rows to alternate rows and columns starting at A2, B1 and B2 respectively.
Mix 20 mL assay buffer and 20 μL 1M DTT. Add sufficient cathepsin S to give 2 nM final concentration.
Using the a distributor such as a Multidrop 384, add 30 μL/well to all wells of the assay plate and read in fluorescent spectrophotometer such as an Ascent.
Fluorescent readings, (excitation and emission wavelengths 390 nm and 460 nm respectively, set using bandpass filters) reflecting the extent of enzyme cleavage of the fluorescent substrate, […] the inhibitor, are linear rate fitted for each well.
Fitted rates for all wells for each inhibitor are fitted to the competitive inhibition equation using SigmaPlot 2000 to determine V, Km and Ki values.
(§1) Potential inhibitors are screened using the above assay with variable concentrations of test compound. Reactions were initiated by addition of enzyme to buffered solutions of substrate and inhibitor. Ki values were calculated according to equation 1.
(§2) [formula] where v0 is the velocity of the reaction, V is the maximal velocity, S is the concentration of substrate with Michaelis constant of KM, and I is the concentration of inhibitor.

[2] = target: T2, human recombinant cathepsin K (Homo sapiens, UniProt P43235); test: Determination of cathepsin K proteolytic catalytic activity (H-D-Ala-Leu-Lys-AMC substrate); assay type: biochemical; details: read-out: Ki Cat. K
T2 construct: made in house; host or cells: not fixed: E coli, Pichia or Baculovirus systems are named as options
T2 sequence (P43235 115-329): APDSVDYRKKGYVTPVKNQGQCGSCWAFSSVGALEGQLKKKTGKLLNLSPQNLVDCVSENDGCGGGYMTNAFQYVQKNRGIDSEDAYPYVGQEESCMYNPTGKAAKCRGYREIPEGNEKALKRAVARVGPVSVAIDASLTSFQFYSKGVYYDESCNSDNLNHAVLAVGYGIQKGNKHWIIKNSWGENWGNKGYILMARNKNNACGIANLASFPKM
Protocol: Determination of Cathepsin K Proteolytic Catalytic Activity
Convenient assays for cathepsin K are carried out using human recombinant enzyme, such as that described in PDB. • ID BC016058 standard; mRNA; HUM; 1699 BP. • DE Homo sapiens cathepsin K (pycnodysostosis), mRNA (cDNA clone MGC:23107 • RX MEDLINE; RX PUBMED; 12477932. • DR RZPD; IRALp962G1234. • DR SWISS-PROT; P43235;
The recombinant cathepsin K can be expressed in a variety of commercially available expression systems including E coli, Pichia and Baculovirus systems. The purified enzyme is activated by removal of the prosequence by conventional methods.
Standard assay conditions for the determination of kinetic constants used a fluorogenic peptide substrate, typically H-D-Ala-Leu-Lys-AMC, and were determined in either 100 mM Mes/Tris, pH 7.0 containing 1 mM EDTA and 10 mM 2-mercaptoethanol or 100 mMNa phosphate, imM EDTA, 0.1% PEG4000 pH 6.5 or 100 mM Na acetate, pH 5.5 containing 5 mM EDTA and 20 mM cysteine, in each case optionally with […] as stabiliser. The enzyme concentration used was 5 nM. The stock substrate solution was prepared at 10 mM in DMSO. Screens were carried out at a fixed substrate concentration of 60 μM and detailed kinetic studies with doubling dilutions of substrate from 250 μM. The total DMSO concentration in the assay was kept below 3%. All assays were conducted at ambient temperature. Product fluorescence (excitation at 390 nm, emission at 460 nm) was monitored with a Labsystems Fluoroskan Ascent fluorescent plate reader. Product progress curves were generated over 15 minutes following generation of AMC product.
as §1, §2

[3] = target: human cathepsin L (Homo sapiens, UniProt P07711); test: Cathepsin L Ki (H-D-Val-Leu-Lys-AMC substrate); assay type: biochemical; details: pH 5.5, read-out: Ki Cat. L
human cathepsin L, sequence (P07711 114-333): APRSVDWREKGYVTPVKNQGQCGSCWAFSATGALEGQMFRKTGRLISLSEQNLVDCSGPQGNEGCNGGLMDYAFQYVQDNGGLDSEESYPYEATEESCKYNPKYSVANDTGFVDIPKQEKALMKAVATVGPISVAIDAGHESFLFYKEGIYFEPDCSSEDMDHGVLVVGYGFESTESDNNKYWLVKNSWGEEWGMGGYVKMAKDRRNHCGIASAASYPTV
Protocol: The procedure above with the following amendments is used for the determination of Ki for cathepsin L.
The enzyme is commercially available human cathepsin L (for example Calbiochem). The substrate is H-D-Val-Leu-Lys-AMC available from Bahcem. The assay buffer is 100 mM sodium acetate 1 mM EDTA, pH5.5) The DMSO stock (10 mM in 100% DMSO) is diluted to 10% in assay buffer. Enzyme is prepared at 5 nM concentration in assay buffer plus 1 mM dithiothreitol just before use. 2 μL of 10 mM inhibitor made up in 100% DMSO is dispensed into row A. 10 μL of 50 μM substrate (=1/200 dilution of 10 mM stock in DMSO, diluted in assay buffer).
as §1, §2

[4] = reference markers (passive transport, active transport, active efflux); cited from earlier work

T1 sequence (P25774 115-331): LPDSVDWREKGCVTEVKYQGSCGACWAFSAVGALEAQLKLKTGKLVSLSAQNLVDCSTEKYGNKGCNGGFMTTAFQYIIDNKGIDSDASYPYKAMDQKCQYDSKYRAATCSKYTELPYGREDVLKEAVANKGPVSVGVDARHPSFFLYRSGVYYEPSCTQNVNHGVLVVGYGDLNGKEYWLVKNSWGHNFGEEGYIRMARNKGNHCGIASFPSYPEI

CC(=O)N[C@@H](CC(C)(C)C)C(=O)NC1(C(=O)C(=O)Nc2ccn(C)n2)CC(F)(F)C1 [Example A15]
Ki [1]: 20 nM | Ki [2]: 1200 nM | Ki [3]: 6500 nM

CC(C)C(=O)NC(CC1(F)CCCC1)C(=O)NC1(C(=O)C(=O)Nc2ccn(C)n2)CC(F)C1 (stereo not drawn) [Example A30]
Ki [1]: 1 nM | Ki [2]: 720 nM | Ki [3]: 3300 nM

CC(=O)N[C@@H](CC1(C)CCC1)C(=O)NC1(C(=O)C(=O)Nc2ccn(C)n2)CC(F)(F)C1 [Example A13]
Ki [1]: 3.8 nM | Ki [2]: 340 nM | Ki [3]: 870 nM

COC1CC(NC(=O)[C@H](CC2(C)CCCC2)NC(=O)CCl)(C(=O)C(=O)NC2CC2)C1 (stereo partly drawn) [Example A19]
Ki [1]: 5.6 nM | Ki [2]: 7400 nM | Ki [3]: 25000 nM

CCC(=O)N[C@@H](CC1(C)CCCC1)C(=O)N[C@]1(C(=O)C(=O)Nc2ccn(C)n2)C[C@@H](F)C1 [Example A1, N-[3-Fluoro-1-(1-methyl-1H-pyrazol-3-ylaminooxalyl)-cyclobutyl]-3-(1-methyl-cyclopentyl)-2-propionylamino-propionamide]
Ki [1]: 0.8 nM | Ki [2]: 850 nM | Ki [3]: 3900 nM

COC1CC(NC(=O)[C@H](CC2(F)CCCC2)NC(=O)C(C)(C)C)(C(=O)C(=O)Nc2ccn(C)n2)C1 (stereo partly drawn) [Example A31]
Ki [1]: 1.8 nM | Ki [2]: 340 nM | Ki [3]: 1200 nM

COC1CC(NC(=O)[C@H](CC2(C)CCCC2)NC(C)=O)(C(=O)C(=O)NC2CC2)C1 (stereo partly drawn) [Example A16]
Ki [1]: 10 nM | Ki [2]: 12000 nM | Ki [3]: 33000 nM

[2H]C([2H])([2H])C(C(=O)N[C@@H](CC1(F)CCCC1)C(=O)NC1(C(=O)C(=O)Nc2ccn(C)n2)CC(F)(F)C1)(C([2H])([2H])[2H])C([2H])([2H])[2H] [Example A37]
Ki [1]: 3 nM | Ki [2]: 640 nM | Ki [3]: 1800 nM

N[C@@H](Cc1ccccc1)C(=O)O [L-Phenylalanine]
absorption in man (%) [4]: 100%

CC(C)C(=O)N[C@@H](CC1(C)CCCC1)C(=O)NC1(C(=O)C(=O)Nc2ccn(C)n2)CC(F)(F)C1 [Example A25]
Ki [1]: 1 nM | Ki [2]: 1100 nM | Ki [3]: 2300 nM

CC(C)NC(=O)N[C@@H](CC1(F)CCCC1)C(=O)N[C@]1(C(=O)C(=O)Nc2ccn(C)n2)C[C@@H](F)C1 [Example U2, 3-(1-Fluoro-cyclopentyl)-N-[3-fluoro-1-(1-methyl-1H-pyrazol-3-ylaminooxalyl)-cyclobutyl]-2-(3-isopropyl-ureido)-propionamide]
Ki [1]: 1.3 nM | Ki [2]: 1300 nM | Ki [3]: 2200 nM

CC(=O)N[C@@H](CC1(C)CCCC1)C(=O)NC1(C(=O)C(=O)Nc2ccn(C)n2)CCC1 [Example A6]
Ki [1]: 0.81 nM | Ki [2]: 580 nM | Ki [3]: 5200 nM

Cn1ccc(NC(=O)C(=O)C2(NC(=O)[C@H](CC3(F)CCCC3)NC(=O)C(F)F)CC(F)(F)C2)n1 [Example A36]
Ki [1]: 3 nM | Ki [2]: 1100 nM | Ki [3]: 380 nM

OC[C@@H](O)[C@@H](O)[C@H](O)[C@H](O)CO [Mannitol]
absorption in man (%) [4]: 16%

CN(Cc1cnc2nc(N)nc(N)c2n1)c1ccc(C(=O)N[C@@H](CCC(=O)O)C(=O)O)cc1 [Methotrexate]
absorption in man (%) [4]: 20%

CCN(CC)C(=O)N[C@@H](CC1(C)CCCC1)C(=O)N[C@]1(C(=O)C(=O)Nc2ccn(C)n2)C[C@@H](F)C1 [Example U1, 2-(3,3-Diethyl-ureido)-N-[3-fluoro-1-(1-methyl-1H-pyrazol-3-ylaminooxalyl)-cyclobutyl]-3-(1-methyl-cyclopentyl)-propionamide]
Ki [1]: 1.2 nM | Ki [2]: 510 nM | Ki [3]: 860 nM

CCNC(=O)N[C@@H](CC1(F)CCCC1)C(=O)NC1(C(=O)C(=O)Nc2ccn(C)n2)CCC1 [Example U4]
Ki [1]: 0.63 nM | Ki [2]: 620 nM | Ki [3]: 2100 nM
